Reference: ChEMBL document CHEMBL1143211, “Inhibitors of proteases and amide hydrolases that employ an alpha-ketoheterocycle as a key enabling functionality” (Bioorg Med Chem, 2008)
Blank lines part the entries; values can stand above or below the compound they belong to. Where a SMILES comes first, the peptide text is derived from it. [ ]: non-standard residue; d: D form. The star is where a group is joined. Nle = CCCC[C@H](N)C(=O)O; Bz = O=C(c1ccccc1)*

Assays:
[1] = Oral bioavailability in rat; format: ADME, organism-based; conditions: in vivo
Cathepsin B = Cathepsin B (Homo sapiens, UniProt P07858); assay: Inhibition of human liver cathepsin B
Cathepsin S = Cathepsin S (Homo sapiens, UniProt P25774); assay: Inhibition of human recombinant cathepsin S
Cathepsin S, sequence (P25774 whole entry): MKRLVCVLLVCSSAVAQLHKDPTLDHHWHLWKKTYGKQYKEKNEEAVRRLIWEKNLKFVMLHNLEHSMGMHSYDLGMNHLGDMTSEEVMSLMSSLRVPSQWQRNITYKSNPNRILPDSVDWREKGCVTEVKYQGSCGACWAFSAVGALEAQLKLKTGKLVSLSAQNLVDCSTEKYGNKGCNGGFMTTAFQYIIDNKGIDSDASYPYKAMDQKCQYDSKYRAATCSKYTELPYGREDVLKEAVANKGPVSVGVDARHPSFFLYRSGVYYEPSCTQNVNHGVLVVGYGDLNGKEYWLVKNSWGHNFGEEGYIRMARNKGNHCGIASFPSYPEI

Cathepsin K = target: T1, Cathepsin K (Homo sapiens, UniProt P43235); assay: Inhibition of human recombinant cathepsin K
T1 sequence (P43235 whole entry): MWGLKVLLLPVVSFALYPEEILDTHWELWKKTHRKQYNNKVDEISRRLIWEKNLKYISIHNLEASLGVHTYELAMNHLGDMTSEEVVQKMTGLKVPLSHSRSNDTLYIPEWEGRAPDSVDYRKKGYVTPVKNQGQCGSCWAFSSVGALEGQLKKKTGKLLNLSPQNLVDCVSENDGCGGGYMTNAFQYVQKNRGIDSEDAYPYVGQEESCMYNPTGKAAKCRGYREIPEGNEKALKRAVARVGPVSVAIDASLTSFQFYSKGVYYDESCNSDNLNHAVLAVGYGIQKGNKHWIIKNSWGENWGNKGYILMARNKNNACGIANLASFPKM

Procathepsin L = Procathepsin L (Homo sapiens, UniProt P07711); assay: Inhibition of human recombinant cathepsin L
Procathepsin L, sequence (P07711 whole entry): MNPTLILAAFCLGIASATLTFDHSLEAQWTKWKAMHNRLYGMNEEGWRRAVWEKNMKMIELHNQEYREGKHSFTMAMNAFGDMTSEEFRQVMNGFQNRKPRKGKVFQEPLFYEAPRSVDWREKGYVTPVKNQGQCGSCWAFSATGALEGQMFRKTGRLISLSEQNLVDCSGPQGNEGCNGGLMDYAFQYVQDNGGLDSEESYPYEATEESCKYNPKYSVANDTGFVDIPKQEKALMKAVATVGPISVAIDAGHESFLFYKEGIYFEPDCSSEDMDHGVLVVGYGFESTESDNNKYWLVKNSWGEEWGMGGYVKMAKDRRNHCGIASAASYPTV

rhinovirus B14 = assay: Antiviral activity against human rhinovirus 14; format: functional, organism-based; conditions: Rhinovirus B
[2] = Inhibition of human rhinovirus 14 3C protease; parameters: species or system rhinovirus B14
[3] = Selectivity for human alpha-thrombin over bovine trypsin
[4] = Inhibition of bovine trypsin; parameters: species or system Bos taurus
Hamster = assay: Efficacy in po dosed hamster acute lung injury model; format: functional; conditions: Cricetinae
Homo sapiens = organism: Homo sapiens; assay: Selectivity for human alpha-thrombin over human trypsin
Trypsin = Trypsin (Homo sapiens, UniProt P07477+P07478+P35030); assay: Inhibition of human trypsin; format: protein assay
Prothrombin = Prothrombin (Homo sapiens, UniProt P00734); assay: Inhibition of human alpha-thrombin
[5] = Selectivity for rat FAAH over triacylglycerol hydrolase
[6] = Inhibition of human beta-tryptase
[7] = Inhibition of trypsin-like activity of human 20S proteasome
[8] = Inhibition of post-glutamyl peptide hydrolase-like activity of human 20S proteasome
[9] = Inhibition of dengue virus NS3 protease
[10] = target: T2, Fatty-acid amide hydrolase 1 (Rattus norvegicus, UniProt P97612)
T2 sequence (P97612 whole entry): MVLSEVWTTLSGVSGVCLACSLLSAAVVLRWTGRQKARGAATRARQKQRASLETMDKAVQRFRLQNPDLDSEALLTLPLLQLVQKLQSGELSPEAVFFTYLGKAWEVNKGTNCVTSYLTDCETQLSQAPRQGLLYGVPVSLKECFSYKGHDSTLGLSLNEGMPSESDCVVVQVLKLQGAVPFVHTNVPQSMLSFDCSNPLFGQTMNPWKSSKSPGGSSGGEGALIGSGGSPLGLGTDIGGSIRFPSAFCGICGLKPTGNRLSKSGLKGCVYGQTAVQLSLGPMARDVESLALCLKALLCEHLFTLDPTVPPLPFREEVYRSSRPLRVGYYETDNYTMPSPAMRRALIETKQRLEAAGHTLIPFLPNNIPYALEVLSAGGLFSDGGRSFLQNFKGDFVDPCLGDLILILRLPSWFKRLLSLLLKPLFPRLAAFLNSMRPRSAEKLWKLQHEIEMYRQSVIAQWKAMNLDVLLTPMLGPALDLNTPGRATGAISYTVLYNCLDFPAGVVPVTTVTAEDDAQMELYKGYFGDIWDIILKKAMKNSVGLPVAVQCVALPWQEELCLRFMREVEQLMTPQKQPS

Granzyme B = Granzyme B (Homo sapiens, UniProt P10144); assay: Inhibition of granzyme B
Granzyme B, sequence (P10144 whole entry): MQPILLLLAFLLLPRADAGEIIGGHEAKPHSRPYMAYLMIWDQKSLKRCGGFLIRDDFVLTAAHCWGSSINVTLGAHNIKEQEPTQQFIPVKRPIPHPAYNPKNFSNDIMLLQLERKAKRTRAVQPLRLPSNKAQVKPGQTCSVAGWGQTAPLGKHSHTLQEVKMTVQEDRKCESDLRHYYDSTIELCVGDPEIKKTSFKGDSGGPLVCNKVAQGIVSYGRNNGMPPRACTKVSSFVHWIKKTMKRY

SMILES: NCCCC[C@H](NC(=O)[C@@H]1CCCN1C(=O)[C@@H](CC1CCCCC1)NCC(=O)O)C(=O)c1ncco1
- bioavailability [1]: < 5%

SMILES: CCCC[C@H](NC(=O)OCc1ccccc1)C(=O)c1nnc(-c2ccco2)o1
- Ki (Cathepsin B): 34000 nM
- Ki (Cathepsin S): 2000 nM
- Ki (Cathepsin K): 3000 nM
- Ki (Procathepsin L): 28000 nM

SMILES: CN[C@H](Cc1ccccc1)C(=O)N1CCC[C@H]1C(=O)N[C@@H](CCCN=C(N)N)C(=O)c1nc2c(s1)CCCC2
- Ratio Ki [3]: 15
- Ki [4]: 4.4 nM

SMILES: COC(=O)N[C@H](C(=O)N1CCC[C@H]1C(=O)N[C@H](C(=O)c1nn(-c2ccc(N(C)C)cc2)c(=O)o1)C(C)C)C(C)C
- ED50 (Hamster): 7.5 mg/kg

SMILES: N=C(N)N1CCC[C@@H](C[C@H](NC(=O)CN2C(=O)CN(CCCc3ccccc3)C(=O)[C@H]2Cc2ccccc2Cl)C(=O)c2nccs2)C1
- Ratio Ki (Homo sapiens): 500
- IC50 (Trypsin): 9700 nM
- Ki (Prothrombin): 1.2 nM

SMILES: CC(C)C[C@H](NC(=O)OCc1ccccc1)C(=O)N[C@@H](Cc1ccccc1)C(=O)N[C@@H](C[C@H]1CCNC1=O)C(=O)c1ccccn1
- EC50 (rhinovirus B14): 4000 nM
- Ki [2]: 170 nM

SMILES: O=C(CCCCCCCCc1ccccc1)c1nnc(-c2ccccn2)o1
- Selectivity ratio [5]: 600

SMILES: CN[C@H](Cc1ccccc1)C(=O)N1CCC[C@H]1C(=O)N[C@@H](CCCNC(=N)N)C(=O)c1nccn1C
- Ki [4]: 5800 nM

SMILES: NCCCC[C@H](NC(=O)[C@@H]1CCCN1C(=O)[C@H](N)CC1CCCCC1)C(=O)c1nccs1
- bioavailability [1]: 23%

SMILES: CCCC[C@H](NC(=O)OCC(C)C)C(=O)c1nnc(-c2ccco2)o1
- Ki (Cathepsin B): 16000 nM
- Ki (Cathepsin S): 380 nM
- Ki (Cathepsin K): 500 nM
- Ki (Procathepsin L): 14000 nM

SMILES: Cc1ccc(S(=O)(=O)N[C@@H](CC(=O)NCC(C)(C)C)C(=O)N[C@](C)(CO)C(=O)N[C@@H](CC(C)C)C(=O)c2nnc(-c3ccccc3)o2)cc1
- Ki [7]: > 900000 nM
- Ki [8]: > 900000 nM

SMILES: C=CCOC(=O)N[C@@H](CC1CCNC1)C(=O)c1noc(Cc2ccc(C(=O)NC3Cc4ccccc4C3)cc2)n1 (stereo partly specified)
- Selectivity ratio (Homo sapiens): > 50
- Ki [6]: 25 nM

SMILES: CCCC[C@H](NC(=O)c1ccccc1)C(=O)N[C@@H](CCCCN)C(=O)N[C@@H](CCCNC(=N)N)C(=O)N[C@H](C=O)CCCNC(=N)N (Bz-[Nle]KRR-aldehyde)
- Ki [9]: 5800 nM

SMILES: CN[C@H](Cc1ccccc1)C(=O)N1CCC[C@H]1C(=O)N[C@@H](CCCNC(=N)N)C(=O)c1ccccn1
- Ki [4]: 73 nM

SMILES: Cc1ccnc(-c2cnc(C(=O)CCCCCCc3ccccc3)o2)c1
- Ki [10]: 0.6 nM
- Selectivity ratio [5]: 2000

More lines, main results first:

- EC50 (rhinovirus B14): 7900 nM
SMILES: CC(C)C[C@H](NC(=O)OCc1ccccc1)C(=O)N[C@@H](Cc1ccccc1)C(=O)N[C@@H](C[C@H]1CCNC1=O)C(=O)c1nccs1
- Ki [2]: 700 nM

- Ki (Cathepsin B): 7000 nM
- Ki (Cathepsin S): 30 nM
- Ki (Cathepsin K): 8.5 nM
- Ki (Procathepsin L): 70 nM
SMILES: CC(C)C[C@H](NC(=O)C1CCNCC1)C(=O)N[C@@H](CCc1ccccc1)C(=O)c1nc2cc(C(C)(C)C)ccc2o1

- Ratio Ki [3]: 12000
- Ki [4]: 1300 nM
SMILES: CN[C@H](Cc1ccccc1)C(=O)N1CCC[C@H]1C(=O)N[C@@H](CCCNC(=N)N)C(=O)c1cc2ccccc2s1

- Ki [6]: 33 nM
- Ki [4]: 38 nM
SMILES: CS(=O)(=O)N1CCC[C@H]1C(=O)N[C@@H](CCCNC(=N)N)C(=O)c1nc2ccccc2s1

- Ki (Cathepsin B): 2100 nM
- Ki (Cathepsin K): 9.5 nM
- Ki (Procathepsin L): 30 nM
SMILES: CC(C)C[C@H](NC(=O)C1CCNCC1)C(=O)N[C@@H](CCc1ccccc1)C(=O)c1nc2ccccc2o1

- EC50 (rhinovirus B14): 340 nM
SMILES: Cc1cc(C(=O)N[C@H](C(=O)N[C@@H](Cc2ccc(F)cc2)C(=O)N[C@@H](C[C@@H]2CCNC2=O)C(=O)c2nc3ccccc3s2)C(C)C)no1
- Ki [2]: 4.5 nM

- EC50 (rhinovirus B14): > 10000 nM
SMILES: CC(C)C[C@H](NC(=O)OCc1ccccc1)C(=O)N[C@@H](Cc1ccccc1)C(=O)N[C@@H](C[C@H]1CCNC1=O)C(=O)c1cc2ccccc2s1
- Ki [2]: 4700 nM

- Ki (Granzyme B): 85 nM
SMILES: CC[C@H](C)[C@H](NC(C)=O)C(=O)N[C@H]1CCc2cccc3c2N(C1=O)[C@H](C(=O)N[C@@H](CC(=O)O)C(=O)c1nc2ccccc2s1)C3
